Laboratory results published in patent US10947242B2, “[1,2,4]triazolo[1,5and#8208;A]pyrimidine compounds as PDE2 inhibitors” (Janssen Pharmaceutica NV, priority 2016, dated 2021).
Where two headings read alike, the source gives them in different places.

Legend:
Format in all cases: biochemical
[1] = molecular target: T1, Human recombinant PDE2A (hPDE2A) (Homo sapiens, UniProt O00408); assay: In vitro assay PDE2A (SPA, 3H-cGMP hydrolysis); details: for Emax: read-out: hPDE2A Emax
T1 construct: His tag (inferred from metal chelate purification); made in house; host or cells: Sf9 insect cells (baculovirus)

[2] = molecular target: T2, Human recombinant PDE3A (hPDE3A) (Homo sapiens, UniProt Q14432); assay: In vitro assay PDE3A (SPA, 3H-cAMP hydrolysis); details: for IC50: hPDE3B pIC50, read-out: pIC50 (converted); for Emax: read-out: hPDE3B Emax, read-out: Emax;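 as to all read-outs here: the method names PDE3A and the table heading PDE3B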
T2 construct: purchased Scottish Biomedical; host or cells: Sf9 insect cells
Method: Human recombinant PDE3A (hPDE3A) was supplied as a partially purified insect cell lysate by Scottish Biomedical, it was cloned from human brain and expressed in Sf9 cells. Tested compounds were dissolved and diluted in 100% DMSO to a concentration 100 fold of the final concentration in the assay. Compound dilutions (0.4 μl) were added in 384 well plates to 20 μl of incubation buffer (50 mM Tris pH 7.8, 8.3 mM MgCl2, 1.7 mM EGTA). 10 μl of hPDE3A enzyme in incubation buffer was added and the reaction was started by addition of 10 μl substrate to a final concentration of 0.4 μM cAMP and 2.4 μCi/ml [^3H]-cAMP. The reaction was incubated for 60 min at room temperature. […] After sedimentation of the beads during 30 min the radioactivity was measured in a Perkin Elmer Topcount scintillation counter and results were expressed as cpm. For blanc values the enzyme was omitted from the reaction and replaced by incubation buffer. Control values were obtained by addition of a final concentration of 1% DMSO instead of compound.

[3] = molecular target: T3, Human recombinant PDE10A (hPDE10A) (Homo sapiens, UniProt Q9Y233); assay: In vitro assay PDE10A, human clone (SPA, 3H-cAMP hydrolysis); details: human clone (h), default; for Emax: read-out: hPDE10A2 Emax; for IC50: read-out: hPDE10A2 pIC50 (converted)
T3 construct: His tag (inferred from metal chelate purification); made in house; host or cells: Sf9 insect cells (baculovirus)
Method: Rat recombinant PDE10A (rPDE10A2) was expressed in Sf9 cells using a recombinant rPDE10A baculovirus construct. […] Tested compounds were dissolved and diluted in 100% DMSO to a concentration 100 fold of the final concentration in the assay. Human recombinant PDE10A ([…]) was expressed in Sf9 cells using a recombinant hPDE10A baculovirus that was made and amplified in house. […] Compound dilutions (0.4 μl) were added in 384 well plates to 20 μl of incubation buffer (50 mM Tris pH 7.8, 8.3 mM MgCl2, 1.7 mM EGTA). 10 μl of rPDE10A or hPDE10A enzyme in incubation buffer was added and the reaction was started by addition of 10 μl substrate to a final concentration of 60 nM cAMP and 0.008 μCi ^3H-cAMP. The reaction was incubated for 60 minutes at room temperature. […] After sedimentation of the beads during 30 minutes the radioactivity was measured in a Perkin Elmer Topcount scintillation counter and results were expressed as cpm. For blanc values the enzyme was omitted from the reaction and replaced by incubation buffer. Control values were obtained by addition of a final concentration of 1% DMSO instead of compound.

[4] = human recombinant PDE2A, 10 μM cGMP substrate, read-out: hPDE2A pIC50 (converted)
[5] = read-out: hPDE2A pIC50 (converted)
[6] = human recombinant PDE2A, 10 μM cGMP substrate

T1 sequence (O00408 whole entry): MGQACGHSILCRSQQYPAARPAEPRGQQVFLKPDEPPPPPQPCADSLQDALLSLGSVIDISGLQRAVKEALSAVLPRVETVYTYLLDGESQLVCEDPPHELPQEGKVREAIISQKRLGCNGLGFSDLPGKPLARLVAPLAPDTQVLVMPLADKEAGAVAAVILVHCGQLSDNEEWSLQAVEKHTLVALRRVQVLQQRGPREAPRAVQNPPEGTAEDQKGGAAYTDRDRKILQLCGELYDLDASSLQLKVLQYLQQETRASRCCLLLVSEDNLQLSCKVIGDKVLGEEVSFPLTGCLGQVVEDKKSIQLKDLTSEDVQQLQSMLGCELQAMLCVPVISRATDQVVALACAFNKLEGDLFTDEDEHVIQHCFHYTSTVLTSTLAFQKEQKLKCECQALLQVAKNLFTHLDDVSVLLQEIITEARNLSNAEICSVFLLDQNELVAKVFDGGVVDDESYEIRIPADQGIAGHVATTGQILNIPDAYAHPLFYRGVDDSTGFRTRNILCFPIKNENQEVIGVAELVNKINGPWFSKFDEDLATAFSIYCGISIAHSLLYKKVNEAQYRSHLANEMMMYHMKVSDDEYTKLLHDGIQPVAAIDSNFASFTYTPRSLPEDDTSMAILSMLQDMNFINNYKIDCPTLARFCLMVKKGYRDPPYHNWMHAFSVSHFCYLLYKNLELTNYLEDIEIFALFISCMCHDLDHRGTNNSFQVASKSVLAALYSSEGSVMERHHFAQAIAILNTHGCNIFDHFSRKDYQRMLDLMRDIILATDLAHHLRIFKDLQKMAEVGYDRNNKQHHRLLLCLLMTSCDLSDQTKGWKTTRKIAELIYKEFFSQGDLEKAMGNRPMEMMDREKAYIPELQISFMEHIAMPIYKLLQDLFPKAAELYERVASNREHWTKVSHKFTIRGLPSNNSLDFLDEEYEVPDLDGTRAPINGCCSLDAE
T2 sequence (Q14432 whole entry): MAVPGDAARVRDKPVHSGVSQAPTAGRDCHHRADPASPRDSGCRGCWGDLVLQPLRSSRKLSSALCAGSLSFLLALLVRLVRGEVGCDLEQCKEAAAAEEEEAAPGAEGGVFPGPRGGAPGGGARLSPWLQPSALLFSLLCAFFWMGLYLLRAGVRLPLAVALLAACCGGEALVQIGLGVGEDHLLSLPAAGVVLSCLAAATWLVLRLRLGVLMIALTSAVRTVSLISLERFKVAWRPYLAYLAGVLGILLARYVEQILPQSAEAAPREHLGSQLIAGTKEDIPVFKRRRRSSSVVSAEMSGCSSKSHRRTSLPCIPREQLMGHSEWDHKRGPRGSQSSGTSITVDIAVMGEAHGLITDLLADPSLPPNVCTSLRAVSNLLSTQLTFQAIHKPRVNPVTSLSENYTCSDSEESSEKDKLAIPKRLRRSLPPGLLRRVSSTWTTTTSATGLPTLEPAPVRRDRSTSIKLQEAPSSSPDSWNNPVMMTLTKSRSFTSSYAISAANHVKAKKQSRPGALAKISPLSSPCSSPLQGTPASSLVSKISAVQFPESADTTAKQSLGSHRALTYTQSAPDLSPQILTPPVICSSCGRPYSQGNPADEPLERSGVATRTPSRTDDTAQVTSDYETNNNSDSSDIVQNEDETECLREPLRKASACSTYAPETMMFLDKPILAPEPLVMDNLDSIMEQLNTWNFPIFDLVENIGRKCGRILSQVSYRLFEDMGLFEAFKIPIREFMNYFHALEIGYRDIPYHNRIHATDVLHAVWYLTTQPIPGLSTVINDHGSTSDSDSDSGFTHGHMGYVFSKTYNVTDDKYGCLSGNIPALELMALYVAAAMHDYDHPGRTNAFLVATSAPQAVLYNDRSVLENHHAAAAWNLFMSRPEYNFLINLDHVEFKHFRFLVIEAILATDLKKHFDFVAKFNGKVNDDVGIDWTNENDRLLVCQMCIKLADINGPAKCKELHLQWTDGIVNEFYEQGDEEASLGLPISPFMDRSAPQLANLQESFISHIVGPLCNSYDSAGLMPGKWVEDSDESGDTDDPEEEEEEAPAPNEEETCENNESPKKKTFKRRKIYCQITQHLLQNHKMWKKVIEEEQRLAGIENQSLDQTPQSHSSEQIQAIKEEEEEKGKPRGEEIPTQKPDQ
T3 sequence (Q9Y233 267-1055): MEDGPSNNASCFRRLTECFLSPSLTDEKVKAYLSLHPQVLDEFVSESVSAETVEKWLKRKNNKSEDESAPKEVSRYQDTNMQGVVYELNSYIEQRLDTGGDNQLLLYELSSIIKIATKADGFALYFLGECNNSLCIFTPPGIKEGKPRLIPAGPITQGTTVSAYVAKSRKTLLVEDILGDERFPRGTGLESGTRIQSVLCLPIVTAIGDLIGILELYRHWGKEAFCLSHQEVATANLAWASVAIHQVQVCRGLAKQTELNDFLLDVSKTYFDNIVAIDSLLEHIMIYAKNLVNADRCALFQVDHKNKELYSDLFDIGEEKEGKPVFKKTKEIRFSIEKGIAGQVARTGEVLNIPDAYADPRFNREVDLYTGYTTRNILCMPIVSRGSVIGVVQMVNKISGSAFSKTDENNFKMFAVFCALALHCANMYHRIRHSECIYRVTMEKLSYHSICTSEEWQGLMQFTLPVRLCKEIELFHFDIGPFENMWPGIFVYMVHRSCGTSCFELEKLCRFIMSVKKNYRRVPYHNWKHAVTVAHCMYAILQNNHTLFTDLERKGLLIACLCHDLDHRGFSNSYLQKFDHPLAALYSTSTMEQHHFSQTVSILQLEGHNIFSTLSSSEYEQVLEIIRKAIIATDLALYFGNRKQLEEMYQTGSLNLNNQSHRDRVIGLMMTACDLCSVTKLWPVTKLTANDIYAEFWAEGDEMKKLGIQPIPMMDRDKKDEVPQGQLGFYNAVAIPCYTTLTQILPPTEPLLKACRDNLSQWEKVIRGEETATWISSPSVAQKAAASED

| IC50 [1, 4] | Emax ([1]; human recombinant PDE2A) | Emax [1] | IC50 [1, 5] | IC50 [2] | Emax [2] | Emax [3] | IC50 [3] | hPDE2A Emax [1] | hPDE2A pIC50 [1] | hPDE2A Emax ([1]; human recombinant PDE2A) | hPDE2A pIC50 [1, 6] | hPDE3B Emax [2] | hPDE10A2 Emax [3] | hPDE10A2 pIC50 [3] | SMILES | IC50 ([1]; hPDE2A pIC50) | IC50 ([1]; hPDE2A pIC50, human recombinant PDE2A, 10 μM cGMP substrate) |
| --- | --- | --- | --- | --- | --- | --- | --- | --- | --- | --- | --- | --- | --- | --- | --- | --- | --- |
| 1950 nM | 88% | 88% | 1950 nM | > 10 µM | 31% | 28% | > 10000 nM | – | – | – | – | – | – | – | C[C@H]1CCN(C(=O)c2ccc3ncsc3c2)C[C@]1(F)c1cc(C(F)F)nc2ncnn12 [Compound 34] | – | – |
| 12.6 nM | 101% | 101% | 12.6 nM | > 10 µM | 41% | 83% | 1780 nM | – | – | – | – | – | – | – | C[C@@H]1CCN(C(=O)c2ccnc(Cl)c2F)C[C@H]1c1cc(C(F)F)nc2ncnn12 [Compound 55] | – | – |
| 27.5 nM | 100% | 100% | 27.5 nM | > 10 µM | 21% | 78% | 3160 nM | – | – | – | – | – | – | – | C[C@@H]1CCN(C(=O)c2ccnn2C)C[C@H]1c1cc(C(F)F)nc2ncnn12 [Compound 57] | – | – |
| 24.5 nM | 99% | 99% | 24.5 nM | > 10 µM | 18% | 69% | 4470 nM | – | – | – | – | – | – | – | C[C@@H]1CCN(C(=O)c2cn(C)cn2)C[C@H]1c1cc(C(F)F)nc2ncnn12 [Compound 58] | – | – |
| 4.37 nM | 101% | 101% | 4.37 nM | > 10 µM | 45% | 92% | 457 nM | – | – | – | – | – | – | – | CC(C)c1n[nH]cc1C(=O)N1CC[C@@H](C)[C@H](c2cc(C(F)F)nc3ncnn23)C1 [Compound 61] | – | – |
| 7.24 nM | 100% | 100% | 7.24 nM | 6.92 µM | 60% | 89% | 871 nM | – | – | – | – | – | – | – | C[C@@H]1CCN(C(=O)c2cccc3c2OC(F)(F)O3)C[C@H]1c1cc(C(F)F)nc2ncnn12 [Compound 63] | – | – |
| 1.26 nM | 100% | 100% | 1.26 nM | 6.76 µM | 70% | 95% | 251 nM | – | – | – | – | – | – | – | Cc1cc(C(=O)N2CC[C@@H](C)[C@H](c3cc(C(F)F)nc4ncnn34)C2)c(C)s1 [Compound 65] | – | – |
| 2.57 nM | 99% | 99% | 2.57 nM | > 10 µM | 49% | 94% | 288 nM | – | – | – | – | – | – | – | C[C@@H]1CCN(C(=O)c2ccn(C)c2)C[C@H]1c1cc(C(F)F)nc2ncnn12 [Compound 67] | – | – |
| 2950 nM | 81% | 81% | 2950 nM | > 10 µM | 22% | 27% | > 10000 nM | – | – | – | – | – | – | – | COc1c(C)cc(C(=O)N2CC[C@@H](C)[C@@](F)(c3cc(C(F)F)nc4ncnn34)C2)cc1C [Compound 75] | – | – |
| 7080 nM | 59% | 59% | 7080 nM | > 10 µM | 17% | 1% | > 10000 nM | – | – | – | – | – | – | – | Cc1cc(C(=O)N2CC[C@@H](C)[C@@](F)(c3cc(C(F)F)nc4ncnn34)C2)cc(C)n1 [Compound 81] | – | – |

Continued, compound first:

| SMILES | IC50 [1, 4] | Emax ([1]; human recombinant PDE2A) | Emax [1] | IC50 [1, 5] | IC50 [2] | Emax [2] | Emax [3] | IC50 [3] | hPDE2A Emax [1] | hPDE2A pIC50 [1] | hPDE2A Emax ([1]; human recombinant PDE2A) | hPDE2A pIC50 [1, 6] | hPDE3B Emax [2] | hPDE10A2 Emax [3] | hPDE10A2 pIC50 [3] | IC50 ([1]; hPDE2A pIC50) | IC50 ([1]; hPDE2A pIC50, human recombinant PDE2A, 10 μM cGMP substrate) |
| --- | --- | --- | --- | --- | --- | --- | --- | --- | --- | --- | --- | --- | --- | --- | --- | --- | --- |
| Cc1cc([C@@H]2CN(C(=O)c3ccc(C(C)(C)C)o3)CC[C@H]2C)n2ncnc2n1 [Compound 9] | 13.8 nM | 101% | 101% | 13.8 nM | 4.27 µM | 74% | 100% | 74.1 nM | – | – | – | – | – | – | – | – | – |
| Cc1cc([C@@H]2CN(C(=O)c3ccnc(Cl)c3F)CC[C@H]2C)n2ncnc2n1 [Compound 11] | 22.9 nM | 100% | 100% | 22.9 nM | 4.79 µM | 69% | 95% | 372 nM | – | – | – | – | – | – | – | – | – |
| Cc1cc([C@@H]2CN(C(=O)c3cc4c(nc3Cl)CCCC4)CC[C@H]2C)n2ncnc2n1 [Compound 12] | 21.4 nM | 101% | 101% | 21.4 nM | 1.1 µM | 94% | 97% | 363 nM | – | – | – | – | – | – | – | – | – |
| Cc1cc([C@@H]2CN(C(=O)c3ccn(C)c3)CC[C@H]2C)n2ncnc2n1 [Compound 14] | 6.03 nM | 99% | 99% | 6.03 nM | 4.68 µM | 70% | 99% | 89.1 nM | – | – | – | – | – | – | – | – | – |
| Cc1cc([C@@H]2CN(C(=O)c3ccnc(Cl)c3)CC[C@H]2C)n2ncnc2n1 [Compound 15] | – | – | 100% | – | 8.13 µM | 54% | 97% | 72.4 nM | – | – | – | – | – | – | – | 3.24 nM | 3.24 nM |
| Cc1cc([C@@H]2CN(C(=O)c3cc(C)sc3C)CC[C@H]2C)n2ncnc2n1 [Compound 16] | 6.17 nM | 100% | 100% | 6.17 nM | 1.66 µM | 88% | 98% | 63.1 nM | – | – | – | – | – | – | – | – | – |
| Cc1cc([C@@H]2CN(C(=O)c3cnc(Cl)c(Cl)c3)CC[C@H]2C)n2ncnc2n1 [Compound 17] | 4.9 nM | 99% | 99% | 4.9 nM | 4.27 µM | 74% | 97% | 81.3 nM | – | – | – | – | – | – | – | – | – |
| Cc1cc([C@@H]2CN(C(=O)c3cccc4nc(C)oc34)CC[C@H]2C)n2ncnc2n1 [Compound 19] | 10.5 nM | 101% | 101% | 10.5 nM | 3.09 µM | 79% | 96% | 129 nM | – | – | – | – | – | – | – | – | – |
| Cc1cc([C@@H]2CN(C(=O)c3cnc4ccc(C(F)(F)F)cn34)CC[C@H]2C)n2ncnc2n1 [Compound 20] | 12 nM | 101% | 101% | 12 nM | 4.27 µM | 74% | 98% | 132 nM | – | – | – | – | – | – | – | – | – |
| Cc1cc([C@@H]2CN(C(=O)c3nc4ccccc4o3)CC[C@H]2C)n2ncnc2n1 [Compound 21] | 4.57 nM | 99% | 99% | 4.57 nM | 1.51 µM | 89% | 97% | 132 nM | – | – | – | – | – | – | – | – | – |
| Cc1cc(C(=O)N2CC[C@H](C)[C@@](F)(c3cc(C(F)F)nc4ncnn34)C2)cc(C2CC2)n1 [Compound 24a] | 2570 nM | 80% | 80% | 2570 nM | > 10 µM | 31% | 23% | > 10000 nM | – | – | – | – | – | – | – | – | – |
| Cc1cc(C(=O)N2CC[C@@H](C)[C@H](c3cc(C#N)nc4ncnn34)C2)cc(C)n1 [Compound 26a] | – | – | – | – | – | – | – | – | 21 | <5 | 21 | <5 | 0 | 7 | <5 | – | – |
| Cc1cc(C(=O)N2CC[C@H](C)[C@@H](c3cc(C#N)nc4ncnn34)C2)cc(C)n1 [Compound 26b] | – | – | – | – | – | – | – | – | 98 | 8.17 | 98 | 8.17 | 41 | 95 | 6.63 | – | – |
| Cc1cc(C(=O)N2[C@H]3CC[C@@H]2[C@H](c2cc(C(F)F)nc4ncnn24)CC3)c(F)cn1 [Compound 62] | – | – | 77% | 3020 nM | > 10 µM | 8% | 36% | > 10000 nM | – | – | – | – | – | – | – | – | – |
